The source made the active and inactive calls. The calls are words filed in the database; no cut-off is given here.
What was measured:
[1] = test system: Hepatitis C virus; assay: Antiviral activity against HCV infected in human hepatoma cells assessed as inhibition of viral RNA replication after 3 days by real time PCR analysis; type: functional, organism-based, Hepacivirus hominis; conditions: 72 h
[2] = Inhibition of HCV genotype 1b C-terminal polyhistidine-tagged NS5B Cdelta21 RdRp expressed in Escherichia coli using DCoH75 as template assessed as incorporation of [33P]-CTP in polynucleotide sequence after 2 hrs by scintillation counting analysis; design: species or system Hepatitis C virus subtype 1b
[3] = test system: Rattus norvegicus; assay: AUC (0 to 6 hrs) in rat assessed as 4-Fluoro-6-((7-fluoro-4-oxo-3,4-dihydroquinazolin-6-yl)methyl)-8-(2-oxo-1,2-dihydropyridin-3-yl)-6H-furo[2,3-e]indole-7-carboxylic acid at 10 mg/kg, po; type: ADME, organism-based, Plasma; design: time < 6 hr, dose 10 mg/kg, route oral; conditions: in vivo
[4] = AUC (0 to 6 hrs) in rat at 10 mg/kg, po; type: ADME, organism-based; design: time < 6 hr, dose 10 mg/kg, route oral; conditions: plasma
[5] = Mutagenic activity in micronucleus (unknown origin); type: ADME
[6] = test system: Salmonella typhimurium; assay: Mutagenic activity in Salmonella typhimurium by mini Ames test; type: toxicity, organism-based; conditions: salmonella enterica subsp. enterica serovar typhimurium
[7] = Clearance in iv dosed monkey; type: ADME, organism-based, Macaca mulatta; conditions: rhesus monkey, in vivo
[8] = Clearance in iv dosed rat; type: ADME, organism-based; conditions: in vivo
[9] = Clearance in iv dosed dog; type: ADME, organism-based, Canis lupus familiaris; conditions: in vivo
[10] = Oral bioavailability in dog; type: ADME, organism-based, Canis lupus familiaris; conditions: in vivo
[11] = Oral bioavailability in monkey; type: ADME, organism-based, Macaca mulatta; conditions: rhesus monkey, in vivo
[12] = Oral bioavailability in rat; type: ADME, organism-based; conditions: in vivo
[13] = Half life in monkey at 1 mg/kg, iv; type: ADME, organism-based, Macaca mulatta; design: dose 1 mg/kg, route intravenous; conditions: rhesus monkey, in vivo
[14] = Half life in rat at 3 mg/kg, iv; type: ADME, organism-based; design: dose 3 mg/kg, route intravenous; conditions: in vivo
[15] = Half life in dog at 1 mg/kg, iv; type: ADME, organism-based, Canis lupus familiaris; design: dose 1 mg/kg, route intravenous; conditions: in vivo
[16] = Cmax in dog; type: ADME, organism-based, Canis lupus familiaris; conditions: in vivo
[17] = Cmax in monkey; type: ADME, organism-based, Macaca mulatta; conditions: rhesus monkey, in vivo
[18] = Cmax in rat; type: ADME, organism-based; conditions: in vivo
[19] = AUC (0 to 24 hrs) in dog at 3 mg/kg, po; type: ADME, organism-based, Canis lupus familiaris; design: time < 24 hr, dose 3 mg/kg, route oral; conditions: plasma
[20] = AUC (0 to 24 hrs) in monkey at 3 mg/kg, po; type: ADME, organism-based, Macaca mulatta; design: time < 24 hr, dose 3 mg/kg, route oral; conditions: rhesus monkey, plasma
[21] = AUC (0 to 24 hrs) in rat at 10 mg/kg, po; type: ADME, organism-based; design: time < 24 hr, dose 10 mg/kg, route oral; conditions: plasma
[22] = test system: RNA-directed RNA polymerase (Hepacivirus hominis), O39930 [G554D]; assay: Inhibition of HCV NS5B RdRp G554D mutant palm allosteric site
RNA-directed RNA polymerase (Hepacivirus hominis), O39930 [G554D], sequence (O39930 entry or part of it G554D): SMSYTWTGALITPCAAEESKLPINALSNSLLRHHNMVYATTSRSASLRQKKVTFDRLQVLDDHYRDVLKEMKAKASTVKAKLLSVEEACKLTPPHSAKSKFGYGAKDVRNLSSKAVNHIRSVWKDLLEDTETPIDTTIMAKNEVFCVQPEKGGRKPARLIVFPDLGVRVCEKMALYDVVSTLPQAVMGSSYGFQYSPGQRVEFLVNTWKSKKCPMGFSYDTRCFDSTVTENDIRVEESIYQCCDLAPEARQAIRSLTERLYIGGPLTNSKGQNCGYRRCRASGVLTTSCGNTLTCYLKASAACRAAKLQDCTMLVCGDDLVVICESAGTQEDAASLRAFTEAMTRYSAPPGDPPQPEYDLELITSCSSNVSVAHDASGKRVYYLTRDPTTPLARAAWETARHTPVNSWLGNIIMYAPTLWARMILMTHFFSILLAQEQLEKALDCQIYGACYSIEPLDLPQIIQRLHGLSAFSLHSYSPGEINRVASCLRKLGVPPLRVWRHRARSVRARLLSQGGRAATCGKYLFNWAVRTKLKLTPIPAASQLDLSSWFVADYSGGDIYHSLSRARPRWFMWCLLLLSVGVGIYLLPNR

[23] = test system: RNA-directed RNA polymerase (Hepacivirus hominis), O39930 [M414T]; assay: Inhibition of HCV NS5B RdRp M414T mutant palm allosteric site
RNA-directed RNA polymerase (Hepacivirus hominis), O39930 [M414T], sequence (O39930 entry or part of it M414T): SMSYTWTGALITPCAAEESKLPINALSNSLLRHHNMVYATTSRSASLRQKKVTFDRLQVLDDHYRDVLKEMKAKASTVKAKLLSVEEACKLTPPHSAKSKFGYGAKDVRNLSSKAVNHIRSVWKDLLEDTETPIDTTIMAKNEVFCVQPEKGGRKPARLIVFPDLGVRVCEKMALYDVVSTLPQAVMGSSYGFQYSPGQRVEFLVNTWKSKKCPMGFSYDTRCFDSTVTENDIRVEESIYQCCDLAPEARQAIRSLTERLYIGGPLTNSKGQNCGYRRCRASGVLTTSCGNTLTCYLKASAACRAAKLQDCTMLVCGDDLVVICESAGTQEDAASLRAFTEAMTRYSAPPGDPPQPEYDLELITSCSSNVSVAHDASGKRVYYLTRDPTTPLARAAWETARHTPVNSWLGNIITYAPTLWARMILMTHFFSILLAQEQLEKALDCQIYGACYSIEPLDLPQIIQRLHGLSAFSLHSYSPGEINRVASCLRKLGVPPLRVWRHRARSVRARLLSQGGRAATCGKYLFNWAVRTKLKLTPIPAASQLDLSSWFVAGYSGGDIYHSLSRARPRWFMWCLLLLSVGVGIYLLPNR

[24] = test system: RNA-directed RNA polymerase (Hepacivirus hominis), O39930 [C316Y]; assay: Inhibition of HCV NS5B RdRp C316Y mutant palm allosteric site
RNA-directed RNA polymerase (Hepacivirus hominis), O39930 [C316Y], sequence (O39930 entry or part of it C316Y): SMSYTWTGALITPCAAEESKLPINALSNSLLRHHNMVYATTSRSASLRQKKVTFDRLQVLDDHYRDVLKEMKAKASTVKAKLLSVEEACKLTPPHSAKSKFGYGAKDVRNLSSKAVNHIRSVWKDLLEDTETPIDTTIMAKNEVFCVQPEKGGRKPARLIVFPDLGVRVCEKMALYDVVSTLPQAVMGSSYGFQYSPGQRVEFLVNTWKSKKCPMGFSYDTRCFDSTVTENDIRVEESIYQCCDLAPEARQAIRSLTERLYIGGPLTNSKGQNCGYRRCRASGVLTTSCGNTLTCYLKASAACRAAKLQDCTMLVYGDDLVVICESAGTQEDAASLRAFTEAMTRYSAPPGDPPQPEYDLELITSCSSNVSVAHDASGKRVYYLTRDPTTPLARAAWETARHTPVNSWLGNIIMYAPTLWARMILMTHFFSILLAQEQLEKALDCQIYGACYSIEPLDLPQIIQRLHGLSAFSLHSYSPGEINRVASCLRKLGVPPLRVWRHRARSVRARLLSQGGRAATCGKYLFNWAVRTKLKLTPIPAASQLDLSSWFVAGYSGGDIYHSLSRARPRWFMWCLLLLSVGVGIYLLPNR

[25] = Inhibition of HCV genotype 4a C-terminal polyhistidine-tagged NS5B Cdelta21 RdRp expressed in Escherichia coli using DCoH75 as template assessed as incorporation of [33P]-CTP in polynucleotide sequence after 2 hrs by scintillation counting analysis; design: species or system Hepatitis C virus subtype 4a
[26] = Inhibition of HCV genotype 3a C-terminal polyhistidine-tagged NS5B Cdelta21 RdRp expressed in Escherichia coli using DCoH75 as template assessed as incorporation of [33P]-CTP in polynucleotide sequence after 2 hrs by scintillation counting analysis; design: species or system Hepatitis C virus subtype 3a
[27] = Inhibition of HCV genotype 2a C-terminal polyhistidine-tagged NS5B Cdelta21 RdRp expressed in Escherichia coli using DCoH75 as template assessed as incorporation of [33P]-CTP in polynucleotide sequence after 2 hrs by scintillation counting analysis; design: species or system Hepatitis C virus subtype 2a
[28] = Inhibition of HCV genotype 1a C-terminal polyhistidine-tagged NS5B Cdelta21 RdRp expressed in Escherichia coli using DCoH75 as template assessed as incorporation of [33P]-CTP in polynucleotide sequence after 2 hrs by scintillation counting analysis; design: species or system Hepatitis C virus subtype 1a
[29] = test system: RNA-directed RNA polymerase (Hepacivirus hominis), O39930 [G554D]; assay: Inhibition of HCV NS5B RdRp G554D mutant active site
[30] = test system: RNA-directed RNA polymerase (Hepacivirus hominis), O39930 [M414T]; assay: Inhibition of HCV NS5B RdRp M414T mutant active site
[31] = test system: RNA-directed RNA polymerase (Hepacivirus hominis), O39930 [C316Y]; assay: Inhibition of HCV NS5B RdRp C316Y mutant active site
[32] = species on record: Rattus norvegicus; assay: Ratio of drug level from liver to plasma in rat assessed as 4-Fluoro-6-((7-fluoro-4-oxo-3,4-dihydroquinazolin-6-yl)methyl)-8-(2-oxo-1,2-dihydropyridin-3-yl)-6H-furo[2,3-e]indole-7-carboxylic acid after 6 hrs; conditions: other tissue

## NC(=O)c1ccc(F)c(Cn2c(C(=O)NS(=O)(=O)C3CC3)c(-c3ccc[nH]c3=O)c3cc(C(F)(F)F)ccc32)c1
[1]
  EC50: 170 nM
[2]
  IC50: 6 nM

## NC(=O)c1ccc(F)c(Cn2c(C(=O)O)c(-c3ccc[nH]c3=O)c3c4occc4c(F)cc32)c1
[2]
  IC50: 4 nM

## CN(C)CCCCOC(=O)c1c(-c2ccc[nH]c2=O)c2c3occc3c(F)cc2n1Cc1cc2c(=O)[nH]cnc2cc1F
[3]
  AUC: 0.79 µM·h
[1]
  EC50: 14 nM
[2]
  IC50: 75 nM

## O=C(O)c1c(-c2ccc[nH]c2=O)c2c3occc3c(F)cc2n1Cc1cc2[nH]c(=O)[nH]c2cc1F
[4]
  AUC(0-t) at 6 h: 4 µM·h
[1]
  EC50: 10 nM
[2]
  IC50: 7 nM

## NC(=O)c1ccc(F)c(Cn2c(C(=O)NS(=O)(=O)C3CC3)c(-c3ccc[nH]c3=O)c3c4occc4c(F)cc32)c1
[4]
  AUC(0-t) at 6 h: 0.21 µM·h
[1]
  EC50: 10 nM
[2]
  IC50: 5 nM

## CCc1ccc2c(c1)c(-c1ccc[nH]c1=O)c(C(=O)NS(=O)(=O)C1CC1)n2Cc1cc(F)ccc1F
[1]
  EC50: 40 nM
[2]
  IC50: 3 nM

## CCc1ccc2c(c1)c(-c1ccc[nH]c1=O)c(C(=O)NS(=O)(=O)C1CC1)n2Cc1cc(C#N)ccc1F
[1]
  EC50: 80 nM
[2]
  IC50: 7 nM

## CCc1ccc2c(c1)c(-c1ccc[nH]c1=O)c(C(=O)NS(=O)(=O)C1CC1)n2Cc1cc(S(N)(=O)=O)ccc1F
[1]
  EC50: 80 nM
[2]
  IC50: 5 nM

## O=C(O)c1c(-c2ccc[nH]c2=O)c2c3occc3c(F)cc2n1Cc1cc2c(=O)[nH]c(=O)[nH]c2cc1F
[4]
  AUC(0-t) at 6 h: 8.3 µM·h
[1]
  EC50: 6 nM
[2]
  IC50: 4 nM

## Cc1cc2c(-c3ccc[nH]c3=O)c(C(=O)NS(=O)(=O)C3CC3)n(Cc3cc(C(N)=O)ccc3F)c2cc1F
[1]
  EC50: 50 nM
[2]
  IC50: 4 nM

## CCc1ccc2c(c1)c(-c1ccc[nH]c1=O)c(C(=O)NS(=O)(=O)C1CC1)n2Cc1cc(C(N)=O)ccc1F
[1]
  EC50: 30 nM
[2]
  IC50: 12 nM

## O=C(O)c1c(-c2ccc[nH]c2=O)c2c3occc3c(F)cc2n1Cc1cc2c(=O)[nH]cnc2cc1F
[5]
  Activity: Non-toxic
[6]
  Activity: Non-toxic
[7]
  clearance: 0.6 mL/min/kg
[8]
  clearance: 0.2 mL/min/kg
[9]
  clearance: 11 mL/min/kg
[10]
  bioavailability: 4%
[11]
  bioavailability: 5%
[12]
  bioavailability: 0.7%
[13]
  half-life: 8.9 h
[14]
  half-life: 9.4 h
[15]
  half-life: 3.2 h
[16]
  Cmax: 100 nM
[17]
  Cmax: 800 nM
[18]
  Cmax: 1400 nM
[19]
  AUC(0-t) at 24 h: 0.4 µM·h
[20]
  AUC(0-t) at 24 h: 8 µM·h
[21]
  AUC(0-t) at 24 h: 10 µM·h
[22]
  inhibition: inactive
[23]
  inhibition: inactive
[24]
  inhibition: inactive
[25]
  IC50: > 5000 nM
[26]
  IC50: > 5000 nM
[27]
  IC50: > 5000 nM
[28]
  IC50: 7 nM
[4]
  AUC(0-t) at 6 h: 4.3 µM·h
[1]
  EC50: 6 nM
[2]
  IC50: 5 nM
[29]
  inhibition: Active
[30]
  inhibition: Active
[31]
  inhibition: Active

## Cc1nc2cc(F)c(Cn3c(C(=O)O)c(-c4ccc[nH]c4=O)c4c5occc5c(F)cc43)cc2c(=O)[nH]1
[4]
  AUC(0-t) at 6 h: 0.85 µM·h
[1]
  EC50: 20 nM
[2]
  IC50: 4 nM

## CC(C)(C)C(=O)OCn1cccc(-c2c(C(=O)O)n(Cc3cc4c(=O)[nH]cnc4cc3F)c3cc(F)c4ccoc4c23)c1=O
[1]
  EC50: 67 nM
[2]
  IC50: 51 nM

## Cn1c(=O)[nH]c(=O)c2cc(Cn3c(C(=O)O)c(-c4ccc[nH]c4=O)c4c5occc5c(F)cc43)c(F)cc21
[1]
  EC50: 300 nM
[2]
  IC50: 6 nM

## CCc1cc2c(-c3ccc[nH]c3=O)c(C(=O)NS(=O)(=O)C3CC3)n(Cc3cc(C(N)=O)ccc3F)c2cc1F
[1]
  EC50: 60 nM
[2]
  IC50: 5 nM

## Cn1cnc2cc(F)c(Cn3c(C(=O)O)c(-c4ccc[nH]c4=O)c4c5occc5c(F)cc43)cc2c1=O
[4]
  AUC(0-t) at 6 h: 0.17 µM·h
[1]
  EC50: 250 nM
[2]
  IC50: 3 nM

## CCc1ccc2c(c1)c(-c1ccc[nH]c1=O)c(C(=O)NS(=O)(=O)C1CC1)n2Cc1cc(S(C)(=O)=O)ccc1F
[1]
  EC50: 80 nM
[2]
  IC50: 8 nM

## Cc1ccc2c(c1)c(-c1ccc[nH]c1=O)c(C(=O)NS(=O)(=O)C1CC1)n2Cc1cc(C(N)=O)ccc1F
[2]
  IC50: 4 nM

## O=C(O)c1c(-c2ccc[nH]c2=O)c2c3occc3c(F)cc2n1Cc1cc2[nH]c(=O)oc2cc1F
[1]
  EC50: 2000 nM
[2]
  IC50: 2000 nM

## CC(C)(C)C(=O)OCn1cnc2cc(F)c(Cn3c(C(=O)O)c(-c4ccc[nH]c4=O)c4c5occc5c(F)cc43)cc2c1=O
[1]
  EC50: 10 nM
[2]
  IC50: 13 nM

## CN(C)CCCOC(=O)c1c(-c2ccc[nH]c2=O)c2c3occc3c(F)cc2n1Cc1cc2c(=O)[nH]cnc2cc1F
[3]
  AUC: 2.3 µM·h
[1]
  EC50: 11 nM
[2]
  IC50: 110 nM
[32]
  Ratio: 0.4

## NC(=O)c1ccc(F)c(Cn2c(C(=O)NS(=O)(=O)C3CC3)c(-c3ccc[nH]c3=O)c3cc(C(F)(F)F)c(F)cc32)c1
[1]
  EC50: 150 nM
[2]
  IC50: 8 nM

## Nc1nc2cc(F)c(Cn3c(C(=O)O)c(-c4ccc[nH]c4=O)c4c5occc5c(F)cc43)cc2c(=O)[nH]1
[4]
  AUC(0-t) at 6 h: 0.02 µM·h
[1]
  EC50: 7 nM
[2]
  IC50: 7 nM

## CC(=O)c1ccc(F)c(Cn2c(C(=O)O)c(-c3ccc[nH]c3=O)c3c4occc4c(F)cc32)c1
[4]
  AUC(0-t) at 6 h: 8.8 µM·h
[1]
  EC50: 70 nM
[2]
  IC50: 20 nM

## CCOC(=O)c1c(-c2ccc[nH]c2=O)c2c3occc3c(F)cc2n1Cc1cc2c(=O)n(COC(=O)C(C)(C)C)cnc2cc1F
[1]
  EC50: 69 nM
[2]
  IC50: 400 nM

## CCOC(=O)c1c(-c2ccc[nH]c2=O)c2c3occc3c(F)cc2n1Cc1cc2c(=O)[nH]cnc2cc1F
[3]
  AUC: 0.22 µM·h
[1]
  EC50: 22 nM
[2]
  IC50: 9 nM

## CCc1ccc2c(c1)c(-c1ccc[nH]c1=O)c(C(=O)NS(=O)(=O)C1CC1)n2Cc1cc(O)ccc1F
[1]
  EC50: 100 nM
[2]
  IC50: 5 nM

## O=C(O)c1ccc(F)c(Cn2c(C(=O)O)c(-c3ccc[nH]c3=O)c3c4occc4c(F)cc32)c1
[1]
  EC50: 700 nM
[2]
  IC50: 5 nM

— ChEMBL document CHEMBL3124829, “Discovery of SCH 900188: A Potent Hepatitis C Virus NS5B Polymerase Inhibitor Prodrug As a Development Candidate” (ACS Med Chem Lett, 2014)
